For orientation: IC50 means the concentration at which inhibition is half-maximal. Lower therefore signals greater potency.

SMILES strings stand for the structures.

Chain of P2X7 receptor (Q99572 whole entry): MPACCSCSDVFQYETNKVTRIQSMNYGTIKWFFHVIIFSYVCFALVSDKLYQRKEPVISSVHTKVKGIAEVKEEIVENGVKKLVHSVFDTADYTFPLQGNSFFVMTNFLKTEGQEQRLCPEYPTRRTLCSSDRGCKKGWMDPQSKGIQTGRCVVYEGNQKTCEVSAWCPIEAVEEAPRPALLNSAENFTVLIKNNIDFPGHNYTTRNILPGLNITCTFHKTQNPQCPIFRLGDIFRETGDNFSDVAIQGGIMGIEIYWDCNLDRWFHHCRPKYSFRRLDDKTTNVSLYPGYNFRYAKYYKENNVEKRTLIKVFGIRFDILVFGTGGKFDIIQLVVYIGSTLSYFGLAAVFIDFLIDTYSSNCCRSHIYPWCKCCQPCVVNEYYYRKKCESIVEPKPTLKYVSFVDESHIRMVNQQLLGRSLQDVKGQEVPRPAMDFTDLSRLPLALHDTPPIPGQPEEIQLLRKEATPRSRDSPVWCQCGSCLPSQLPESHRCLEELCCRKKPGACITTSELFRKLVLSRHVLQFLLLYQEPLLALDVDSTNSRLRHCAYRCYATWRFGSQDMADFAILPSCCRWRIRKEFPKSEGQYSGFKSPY

This test concerns the target P2X7 receptor (Homo sapiens (Human), UniProt Q99572). Kind of test: P2X7 FLIPR assay: antagonism of BzATP response in 293 HEK cells stably expressing P2X7 receptor. The test is classed as cell-based. The conditions noted are these: FLIPR fluorescence (Fluo-4), agonist BzATP, 293 HEK cells stably transfected with P2X7 receptor. Here is the method: Cells were plated to cell density of approximately 15,000 cells/well in 384-well assay plates (50 μl/well) with 1.5% low serum media (DMEM, 1.5% BCS, 1% L-glut (2 mM), 1% P/S).
Cells were plated to cell density of approximately 15,000 cells/well in 384-well assay plates (50 μl/well) with 1.5% low serum media (DMEM, 1.5% FBS, 1% L-glut (2 mM), 10 mM HEPES, 1% P/S). Cells were plated 24 hours prior to assay. Cells expressing human, rat or mouse P2X7 receptor were assayed in the following manner.
Fluo-4 NW dye mix (Molecular Probes, Inc., Eugene, Oreg., USA) was prepared in buffer (see manufacturer's instructions). Cell plates were removed from the 37° C. incubator, the media discarded and then 30 μL of dye was added to each well. Plates were placed in the 37° C., non-CO2 incubator for 30 minutes and then room temperature for 30 minutes.
Compound mixtures (A) were added to assay plates containing cells and placed at room temperature for 30 minutes, then BzATP (B) was added. Fluorescence was read using the Tetra FLIPR® (Molecular Devices, Inc., Sunnyvale, Calif., USA) and IC50 values were calculated by standard methods to determine antagonist activity.
The compound `COc1cccc(C(=O)NCC(c2cnc(C)nc2)N2CCC(F)(F)CC2)c1Cl` (single isomer, unassigned; (+)) [(+)2-chloro-N-[2-(4,4-difluoro-1-piperidyl)-2-(2-methylpyrim] [(+)2-chloro-3-methoxy-N-(2-(4,4-difluoropiperidin-1-yl)-2-(2-methylpyrimidin-5-yl)ethyl)benzamide] displayed an IC50 of 12 nM. As for `Cc1ncc(C(CNC(=O)c2ccccc2Cl)N2CCCCC2)cn1` (single isomer, unassigned; (+)) [(+)2-chloro-N-[2-(2-methylpyrimidin-5-yl)-2-(1-piperidyl)eth] [(+)2-chloro-N-(2-(2-methylpyrimidin-5-yl)-2-(piperidin-1-yl)ethyl)benzamide], the figure is 59 nM; as for `CC1(C)CCN(C(CNC(=O)c2cccc(F)c2Cl)c2cnc(C(F)(F)F)nc2)CC1` (centres unmarked) [2-chloro-N-[2-(4,4-dimethyl-1-piperidyl)-2-[2-(trifluoromethyl)pyrimidin-5-yl]ethyl]-3-fluoro-benzamide], 3600 nM; as for `CCc1ncc(C(CNC(=O)c2cccc(Cl)c2Cl)N2CCC(F)(F)CC2)cn1` (single isomer, unassigned; (+)) [(+)2,3-dichloro-N-[2-(4,4-difluoro-1-piperidyl)-2-(2-ethylpy] [(+2,3-dichloro-N-(2-(4,4-difluoropiperidin-1-yl)-2-(2-ethylpyrimidin-5-yl)ethyl)benzamide], 2.6 nM.

As to `Cn1cc(C(CNC(=O)c2cc(F)cc(Cl)c2Cl)N2CCC(F)(F)CC2)cn1` (single isomer, unassigned; (-)) [(−)2,3-dichloro-N-[2-(4,4-difluoro-1-piperidyl)-2-(1-methylp] [(−)2,3-dichloro-5-fluoro-N-(2-(4,4-difluoropiperidin-1-yl)-2-(1-methyl-1H-pyrazol-4-yl)ethyl)benzamide], the IC50 worked out at 26 nM. The compound `O=C(NCC(c1ccc(F)nc1)N1CCC(F)(F)CC1)c1ccccc1Cl` (centres unmarked) [2-chloro-N-[2-(4,4-difluoro-1-piperidyl)-2-(6-fluoro-3-pyridyl)ethyl]benzamide] showed an IC50 of 4 nM. `Cc1ncc(C(CNC(=O)c2cccc(Cl)c2Cl)N2CCC(F)CC2)cn1` (single isomer, unassigned; (-)) [(−)2,3-dichloro-N-[2-(4-fluoro-1-piperidyl)-2-(2-methylpyrim] [(−)2,3-dichloro-N-(2-(4-fluoropiperidin-1-yl)-2-(2-methylpyrimidin-5-yl)ethyl)benzamide] yielded an IC50 of 14 nM.

`O=C(NCC(c1cnc(C(F)(F)F)nc1)N1CCC(F)(F)CC1)c1c(Cl)cccc1Cl` (single isomer, unassigned; (+)) [(+)2,6-dichloro-N-[2-(4,4-difluoro-1-piperidyl)-2-[2-(triflu] [(+)2,6-dichloro-N-(2-(4,4-difluoropiperidin-1-yl)-2-(2-(trifluoromethyl)pyrimidin-5-yl)ethyl)benzamide]: the 50% inhibitory concentration (IC50) was 4.7 nM. Against the preceding compound, the IC50 is about 3-fold lower. On to `O=C(NCC(c1cnc(C(F)(F)F)nc1)N1CCC(F)(F)CC1)c1c(F)cc(F)cc1Cl` (single isomer, unassigned; (-)) [(−)2-chloro-N-[2-(4,4-difluoro-1-piperidyl)-2-[2-(trifluorom] [(−)2-chloro-4,6-difluoro-N-(2-(4,4-difluoropiperidin-1-yl)-2-(2-(trifluoromethyl)pyrimidin-5-yl)ethyl)benzamide], for which the IC50 turned out to be 31 nM. With `Cc1cccc(C(=O)NCC(c2ccc(Cl)cc2)N2CCC(F)(F)CC2)c1C` (centres unmarked) [N-[2-(4-Chloro-phenyl)-2-(4,4-difluoro-piperidin-1-yl)-ethyl]-2,3-dimethyl-benzamide], the IC50 worked out at 3.6 nM. For `O=C(NCC(c1ccc(C(F)(F)F)nc1)N1CCC(F)(F)CC1)c1c(F)cccc1Cl` (single isomer, unassigned; (+)) [(+)2-chloro-6-fluoro-N-(2-(4,4-difluoropiperidin-1-yl)-2-(2-(trifluoromethyl)pyridin-5-yl)ethyl)benzamide], the IC50 was 0.62 nM.

Compound `O=C(NCC(c1cccnc1)N1CCOCC1)c1cccc(Cl)c1Cl` (centres unmarked) [2,3-Dichloro-N-(2-morpholin-4-yl-2-pyridin-3-yl-ethyl)-benzamide] yielded an IC50 of 1100 nM. Regarding `Cc1ncc(C(CNC(=O)c2cccc(F)c2Cl)N2CCCOCC2)cn1` (centres unmarked) [2-chloro-3-fluoro-N-(2-(2-methylpyrimidin-5-yl)-2-(1,4-oxazepan-4-yl)ethyl)benzamide], the IC50 came to 330 nM. For `COc1ccc(F)c(C(=O)NCC(c2cnc(C(F)(F)F)nc2)N2CCC(F)(F)CC2)c1Cl` (single isomer, unassigned; (+)) [(+)2-chloro-N-[2-(4,4-difluoro-1-piperidyl)-2-[2-(trifluorom] [(+)2-chloro-N-(2-(4,4-difluoropiperidin-1-yl)-2-(2-(trifluoromethyl)pyrimidin-5-yl)ethyl)-6-fluoro-3-methoxybenzamide] the value was 8.9 nM. As for `O=C(NCC(c1cnc(C(F)(F)F)nc1)N1CCC(F)(F)CC1)c1c(Cl)cccc1Cl` (single isomer, unassigned; (-)) [(−)2,6-dichloro-N-[2-(4,4-difluoro-1-piperidyl)-2-[2-(triflu] [(−)2,6-dichloro-N-(2-(4,4-difluoropiperidin-1-yl)-2-(2-(trifluoromethyl)pyrimidin-5-yl)ethyl)benzamide], the figure is 6.9 nM; as for `Cc1ncc(C(CNC(=O)c2ccccc2Cl)N2CCOCC2)cn1` (single isomer, unassigned; (+)) [(+)2-chloro-N-[2-(2-methylpyrimidin-5-yl)-2-morpholino-ethyl] [(+)2-chloro-N-(2-(2-methylpyrimidin-5-yl)-2-morpholinoethyl)benzamide], 630 nM. Compound `O=C(NCC(c1cnc(C(F)(F)F)nc1)N1CCC(F)(F)CC1)c1c(F)cc(F)cc1Cl` (single isomer, unassigned; (+)) [(+)2-chloro-N-[2-(4,4-difluoro-1-piperidyl)-2-[2-(trifluorom] [(+)2-chloro-4,6-difluoro-N-(2-(4,4-difluoropiperidin-1-yl)-2-(2-(trifluoromethyl)pyrimidin-5-yl)ethyl)benzamide] gave an IC50 of 9.4 nM. With `O=C(NCC(c1cnc(C(F)(F)F)nc1)N1CCC(F)(F)CC1)c1c(Cl)ccc(F)c1Cl` (single isomer, unassigned; (+)) [(+)2,6-dichloro-N-[2-(4,4-difluoro-1-piperidyl)-2-[2-(triflu] [(+)2,6-dichloro-5-fluoro-N-(2-(4,4-difluoropiperidin-1-yl)-2-(2-(trifluoromethyl)pyrimidin-5-yl)ethyl)benzamide], the IC50 turned out to be 7.1 nM. Compound `O=C(NCC(c1ccc(C(F)(F)F)nc1)N1CCOCC1)c1cccc(C(F)(F)F)c1Cl` (single isomer, unassigned; (+)) [(+)2-chloro-N-[2-morpholino-2-[6-(trifluoromethyl)-3-pyridyl] [(+)2-Chloro-N-[2-morpholino-2-[6-(trifluoromethyl)-3-pyridyl]ethyl]-3-(trifluoromethyl)benzamide] returned an IC50 of 24 nM. As for `COc1cccc(C(=O)NCC(c2cnc(C(F)(F)F)nc2)N2CCOCC2)c1Cl` (single isomer, unassigned; (+)) [(+)2-chloro-3-methoxy-N-[2-morpholino-2-[2-(trifluoromethyl)] [(+)2-chloro-3-methoxy-N-(2-morpholino-2-(2-(trifluoromethyl)pyrimidin-5-yl)ethyl)benzamide], the IC50 worked out at 16 nM. Take `Cc1ncc(C(CNC(=O)c2cccc(F)c2Cl)N2CCC(F)(F)CC2)cn1` (single isomer, unassigned; (+)) [(+)2-chloro-N-[2-(4,4-difluoro-1-piperidyl)-2-(2-methylpyrim] [(+)2-chloro-3-fluoro-N-(2-(4,4-difluoropiperidin-1-yl)-2-(2-methylpyrimidin-5-yl)ethyl)benzamide]: the IC50 was found to be 15 nM. For `COc1ccc(C(CNC(=O)c2ccccc2C)N2CCOCC2)cc1` (centres unmarked) [N-[2-(4-Methoxy-phenyl)-2-morpholin-4-yl-ethyl]-2-methyl-benzamide] the value was 500 nM; for `Cn1cc(C(CNC(=O)c2cccc(Cl)c2Cl)N2CCC(F)(F)CC2)cn1` (single isomer, unassigned; (-)) [(−)2,3-dichloro-N-[2-(4,4-difluoro-1-piperidyl)-2-(1-methylp] [(−)2,3-dichloro-N-(2-(4,4-difluoropiperidin-1-yl)-2-(1-methyl-1H-pyrazol-4-yl)ethyl)benzamide], 25 nM; for `O=C(NCC(c1cnc(C(F)(F)F)nc1)N1CCC(F)CC1)c1cccc(Cl)c1Cl` (single isomer, unassigned; (+)) [(+)2,3-dichloro-N-[2-(4-fluoro-1-piperidyl)-2-[2-(trifluorom] [(+)2,3-dichloro-N-(2-(4-fluoropiperidin-1-yl)-2-(2-(trifluoromethyl)pyrimidin-5-yl)ethyl)benzamide], 3.5 nM. With `Cc1ncc(C(CNC(=O)c2cccc(F)c2Cl)N2CCOCC2)cn1` (centres unmarked) [2-chloro-3-fluoro-N-(2-(2-methylpyrimidin-5-yl)-2-morpholinoethyl)benzamide], the IC50 came to 1200 nM. This IC50 lies about 340-fold higher than the previous one. `Cn1cc(C(CNC(=O)c2ccccc2Cl)N2CCC(F)(F)CC2)cn1` (single isomer, unassigned; (-)) [(−)2-chloro-N-[2-(4,4-difluoro-1-piperidyl)-2-(1-methylpyraz] [(−)2-chloro-N-(2-(4,4-difluoropiperidin-1-yl)-2-(1-methyl-1H-pyrazol-4-yl)ethyl)benzamide] registered a half-inhibitory concentration (IC50) of 230 nM.

Values taken from patent US9415055B2, “Cyclic amines” (H. Lundbeck A/S, priority 2012, dated 2016).
